Numbers after ± are expanded uncertainties.
Experiment: activity coefficient (dimensionless); of the first substance listed, at infinite dilution; xn = mol fraction of the nth substance listed
Conditions: Liquid, Chromatography, x1 = 0

CCCCCCO [hexan-1-ol] + CCOS(=O)(=O)[O-].CCn1cc[n+](C)c1
activity coefficient (343.8 K): 3.52 ± 0.24
activity coefficient (354.2 K): 3.27 ± 0.22
activity coefficient (364.9 K): 3.06 ± 0.21
activity coefficient (375.2 K): 2.81 ± 0.19

CCCCCC=O [hexanal] + CCOS(=O)(=O)[O-].CCn1cc[n+](C)c1
activity coefficient (312.2 K): 11.4 ± 0.78
activity coefficient (322.9 K): 11.3 ± 0.77
activity coefficient (333.4 K): 11.1 ± 0.76

CO [methanol] + CCOS(=O)(=O)[O-].CCn1cc[n+](C)c1
activity coefficient (312.4 K): 0.41 ± 0.03
activity coefficient (323 K): 0.4 ± 0.03
activity coefficient (333.4 K): 0.39 ± 0.03
activity coefficient (343.8 K): 0.38 ± 0.03
activity coefficient (354.2 K): 0.36 ± 0.03

CCCC(=O)OC [methyl butanoate] + CCOS(=O)(=O)[O-].CCn1cc[n+](C)c1
activity coefficient (344 K): 7.29 ± 0.5
activity coefficient (354.5 K): 6.88 ± 0.47
activity coefficient (364.9 K): 6.58 ± 0.45
activity coefficient (375.4 K): 6.26 ± 0.43
activity coefficient (385.9 K): 5.9 ± 0.4

CCCCCCC(=O)OC [methyl heptanoate] + CCOS(=O)(=O)[O-].CCn1cc[n+](C)c1
activity coefficient (301.8 K): 29.8 ± 2
activity coefficient (312.4 K): 28.4 ± 1.9
activity coefficient (322.9 K): 27.1 ± 1.9
activity coefficient (333.4 K): 25.5 ± 1.8

CCCCCC(=O)OC [methyl hexanoate] + CCOS(=O)(=O)[O-].CCn1cc[n+](C)c1
activity coefficient (301.7 K): 20.1 ± 1.4
activity coefficient (312.4 K): 19.2 ± 1.3
activity coefficient (333.4 K): 17 ± 1.2
activity coefficient (343.9 K): 15.9 ± 1.1

CCCCC(=O)OC [methyl pentanoate] + CCOS(=O)(=O)[O-].CCn1cc[n+](C)c1
activity coefficient (333.6 K): 11.6 ± 0.79
activity coefficient (344.1 K): 10.9 ± 0.74
activity coefficient (354.5 K): 10.2 ± 0.69
activity coefficient (364.9 K): 9.42 ± 0.64
activity coefficient (375.4 K): 8.57 ± 0.58
activity coefficient (385.9 K): 7.75 ± 0.53

CCC(=O)OC [methyl propanoate] + CCOS(=O)(=O)[O-].CCn1cc[n+](C)c1
activity coefficient (322.9 K): 4.73 ± 0.32
activity coefficient (333.5 K): 4.58 ± 0.31
activity coefficient (344 K): 4.38 ± 0.3
activity coefficient (354.5 K): 4.1 ± 0.28
activity coefficient (364.9 K): 3.86 ± 0.26
activity coefficient (375.3 K): 3.61 ± 0.25

CCCCCCCCC [nonane] + CCOS(=O)(=O)[O-].CCn1cc[n+](C)c1
activity coefficient (301.8 K): 357 ± 25
activity coefficient (312.4 K): 304 ± 21
activity coefficient (322.9 K): 249 ± 17
activity coefficient (333.5 K): 200 ± 14

CCCCCCCC=O [octanal] + CCOS(=O)(=O)[O-].CCn1cc[n+](C)c1
activity coefficient (303.3 K): 29.8 ± 2
activity coefficient (312.2 K): 28.3 ± 1.9
activity coefficient (322.8 K): 27.1 ± 1.9
activity coefficient (333.3 K): 26.1 ± 1.8
activity coefficient (343.8 K): 25.5 ± 1.7

CCCCCCCC [octane] + CCOS(=O)(=O)[O-].CCn1cc[n+](C)c1
activity coefficient (301.9 K): 221 ± 15
activity coefficient (312.5 K): 184 ± 13
activity coefficient (322.9 K): 148 ± 10
activity coefficient (333.5 K): 119 ± 8.2

CCCCCO [pentan-1-ol] + CCOS(=O)(=O)[O-].CCn1cc[n+](C)c1
activity coefficient (333.4 K): 2.58 ± 0.18
activity coefficient (343.9 K): 2.36 ± 0.16
activity coefficient (354.4 K): 2.22 ± 0.15
activity coefficient (364.7 K): 2.12 ± 0.14

CCCCC=O [pentanal] + CCOS(=O)(=O)[O-].CCn1cc[n+](C)c1
activity coefficient (333.5 K): 5.19 ± 0.35
activity coefficient (343.9 K): 5.1 ± 0.35
activity coefficient (354.4 K): 4.96 ± 0.34
activity coefficient (364.8 K): 4.82 ± 0.33
activity coefficient (375.2 K): 4.69 ± 0.32

CCCCCc1ccccc1 [pentylbenzene] + CCOS(=O)(=O)[O-].CCn1cc[n+](C)c1
activity coefficient (354.3 K): 43.5 ± 3
activity coefficient (364.8 K): 40.3 ± 2.8
activity coefficient (375.1 K): 38 ± 2.6
activity coefficient (385.7 K): 35 ± 2.4
activity coefficient (396.1 K): 32.4 ± 2.2

CCCO [propan-1-ol] + CCOS(=O)(=O)[O-].CCn1cc[n+](C)c1
activity coefficient (322.8 K): 1.23 ± 0.08
activity coefficient (333.5 K): 1.12 ± 0.07
activity coefficient (343.9 K): 1.05 ± 0.07
activity coefficient (364.9 K): 0.91 ± 0.06
activity coefficient (375.4 K): 0.87 ± 0.06

CC(C)O [propan-2-ol] + CCOS(=O)(=O)[O-].CCn1cc[n+](C)c1
activity coefficient (302.5 K): 1.49 ± 0.1
activity coefficient (312.2 K): 1.41 ± 0.09
activity coefficient (322.8 K): 1.29 ± 0.08
activity coefficient (333.4 K): 1.22 ± 0.08
activity coefficient (343.9 K): 1.15 ± 0.07

CCC=O [propanal] + CCOS(=O)(=O)[O-].CCn1cc[n+](C)c1
activity coefficient (333.5 K): 1.94 ± 0.13
activity coefficient (343.9 K): 1.9 ± 0.13
activity coefficient (354.4 K): 1.84 ± 0.12
activity coefficient (364.8 K): 1.8 ± 0.12
activity coefficient (375.2 K): 1.74 ± 0.12

CCCc1ccccc1 [propylbenzene] + CCOS(=O)(=O)[O-].CCn1cc[n+](C)c1
activity coefficient (343.8 K): 16.8 ± 1.1
activity coefficient (354.3 K): 15.7 ± 1.1
activity coefficient (364.7 K): 14.9 ± 1
activity coefficient (375.1 K): 14 ± 0.95
activity coefficient (385.7 K): 13.2 ± 0.9
